Data on 4 compounds can be found in article PMC7413254 (Nature Communications, 2020).

Test [1] concerns the target T1, PfCRT^3D7 (Plasmodium falciparum, UniProt Q8IBZ9). Kind of test: cell-based. Type of test: cell-based. The source says: (§1) The orientation of PfCRT in the parasite’s DV membrane, and also in the oocyte plasma membrane, is such that its N- and C-termini extend into the cytosol. The oocytes were suspended in a reaction buffer adjusted to pH 5.5 to mimic the pH of the DV lumen[1],[2]. In this scenario, the transport of a substrate via PfCRT from the acidic extracellular solution into the oocyte cytosol[15] is analogous to the parasite’s PfCRT-mediated efflux of a substrate from the acidic DV and into the cytosol. Unless specified otherwise, this is the direction in which substrate transport was measured in the oocyte assays.
(§2) Unless specified otherwise, the transport assays were conducted over 1.5 h at 27.5 °C and the reaction buffer was ND96 (96 mM NaCl, 2 mM KCl, 1 mM MgCl2, 1.8 mM CaCl2, 10 mM MES and 10 mM Tris-base) at pH 5.5.
(§3) Ten oocytes were washed twice with the relevant ND96 buffer. […] The assay was terminated by removing the reaction buffer and washing the oocytes with ice-cold ND96 buffer. The oocytes were lysed in 10% (w/v) sodium dodecyl sulfate (SDS) and the radioactivity accumulated within each oocyte was measured with a MicroBeta^2 microplate liquid scintillation analyser (PerkinElmer).
(§4) At least four independent experiments were performed (on different days and using oocytes from different frogs), and within each experiment measurements were made from ten oocytes per treatment.

For test [2], the system named is non-expressing oocytes. Briefly: cells. It counts as cell-based, Xenopus laevis.
Text: as §1, §2, §3, §4

Test [3] concerns the target T2, PfNT1 (Plasmodium falciparum, UniProt Q8IDM6).
T2 construct: expressed in transfected cells; host or cells: Xenopus laevis oocytes (stage V-VI), cRNA-injected
Kind of test: cell-based. It counts as cell-based. Summed up:
(§5)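 Oocytes (ten per treatment, ≥4 independent frogs/days) were preloaded by injecting VF-6 in 25 nL ND96 at pH 5.0, 5.5, 6.0 or 7.0, or Na^+-free choline buffer, then uptake run 1.5 h, 27.5 °C, ND96 pH 5.5 by default. Internal concentrations assumed ~400 nL oocyte volume.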

In test [4] the target is T1, PfCRT^3D7. Kind of test: cell-based. Type of test: cell-based. Summed up: as §5
This is another data set of the same source.

For test [5], the system named is non-expressing oocytes. It counts as cell-based, Xenopus laevis. In short, it runs like this:
as §5

Values joined by “and” are separate entries in the source; they are usually repeats but may differ in a detail not shown here. Equal entries are not always repeated.

T1 sequence (Q8IBZ9 59-398): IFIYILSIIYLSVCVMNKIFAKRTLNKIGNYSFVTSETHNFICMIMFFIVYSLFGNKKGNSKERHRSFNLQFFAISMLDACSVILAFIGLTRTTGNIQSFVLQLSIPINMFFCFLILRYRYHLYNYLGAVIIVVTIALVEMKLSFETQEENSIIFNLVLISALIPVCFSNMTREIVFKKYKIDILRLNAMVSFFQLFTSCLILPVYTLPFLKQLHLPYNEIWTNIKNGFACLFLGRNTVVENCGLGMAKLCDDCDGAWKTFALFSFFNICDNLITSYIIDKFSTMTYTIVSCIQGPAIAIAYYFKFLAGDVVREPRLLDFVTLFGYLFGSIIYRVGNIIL
T2 sequence (Q8IDM6 whole entry): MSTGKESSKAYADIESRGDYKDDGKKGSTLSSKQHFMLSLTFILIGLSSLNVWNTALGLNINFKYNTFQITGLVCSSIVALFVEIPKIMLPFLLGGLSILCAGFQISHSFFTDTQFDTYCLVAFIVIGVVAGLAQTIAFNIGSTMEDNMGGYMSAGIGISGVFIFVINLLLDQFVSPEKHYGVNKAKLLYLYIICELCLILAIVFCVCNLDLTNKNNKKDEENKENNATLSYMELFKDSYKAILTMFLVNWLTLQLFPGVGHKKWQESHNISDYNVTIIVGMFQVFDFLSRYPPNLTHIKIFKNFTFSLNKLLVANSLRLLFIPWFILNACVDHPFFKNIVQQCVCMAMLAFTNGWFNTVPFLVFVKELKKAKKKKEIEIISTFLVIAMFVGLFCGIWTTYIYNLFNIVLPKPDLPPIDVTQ

For the compound `Cc1ncc(C[n+]2csc(CCO)c2C)c(N)n1` [Thiamine (Vitamin B1)], in test [1], the “Cis-inhibition data: total [3H]CQ transport, normalised to the oocyte type control” value is 99 ± 9.3 and 99 ± 3.7 and 99 ± 3.0; the “Total [3H]CQ transport, cis-inhibition by solute” value (“Total … cis-inhibition by solute” below) was 2.8 ± 0.03 and 2.7 ± 0.07 and 2.8 ± 0.05. For the same compound, in test [2], the “Cis-inhibition data: total [3H]CQ transport, normalised to the oocyte type control” value is 99 ± 5.1 and 98 ± 5.2 and 100 ± 4.6; the “Total … cis-inhibition by solute” value was 2.7 ± 0.05 and 4.2 ± 0.03 and 2.2 ± 0.06. Further, in test [3], the “Total [3H]CQ transport, trans-stimulation by injected solute” value (shortened to “Total … by injected solute”) is 3.7 ± 0.08 and 2.7 ± 0.06; the “Trans-stimulation data: total [3H]CQ transport, normalised to the oocyte type control” value turned out to be 101 ± 3.9. Also, in test [4], the “PfCRT-mediated [3H]CQ transport, trans-stimulation by injected solute, PfCRT3D7” value (from here on “PfCRT-mediated [3H]CQ transport … PfCRT3D7”) was 0.1 ± 0.01; the “Total … by injected solute” value is 3.0 ± 0.05 and 3.0 ± 0.03; the “Trans-stimulation data: PfCRT-mediated [3H]CQ transport” value (shortened to “Trans-stimulation data: PfCRT-mediated”) was 99 ± 2.9 and 98 ± 1.9; the “Trans-stimulation data: total [3H]CQ transport, normalised to the oocyte type control” value was 101 ± 3.5 and 100 ± 3.6. Besides, in test [5], the “Total … by injected solute” value is 2.9 ± 0.04 and 3.9 ± 0.05; the “Trans-stimulation data: total [3H]CQ transport, normalised to the oocyte type control” value is 100 ± 3.7 and 99 ± 4.8.
As for `CC[N+](CC)(CC)CC` [Tetraethyl ammonium], in test [1], the “Cis-inhibition data: total [3H]CQ transport in the presence of the solute” value is 98 ± 5.7 and 101 ± 5.2 and 98 ± 5.2; the “Total … cis-inhibition by solute” value is 2.7 ± 0.06 and 3.2 ± 0.08 and 3.7 ± 0.02. In addition, in test [2], the “Cis-inhibition data: total [3H]CQ transport in the presence of the solute” value was 99 ± 4.8 and 101 ± 4.7 and 99 ± 3.6; the “Total … cis-inhibition by solute” value is 2.2 ± 0.03 and 3.3 ± 0.08 and 2.8 ± 0.03. Besides, in test [3], the “Total [3H]CQ transport, trans-stimulation by solute” value (“Total … trans-stimulation by solute” below) was 3.2 ± 0.1 and 2.8 ± 0.02; the “Trans-stimulation data: total [3H]CQ transport with the solute injected” value is 99 ± 3.5 and 100 ± 3.6. Further, in test [4], the “PfCRT-mediated [3H]CQ transport … PfCRT3D7” value is 0.6 ± 0.02 and 0.7 ± 0.01; the “Total … trans-stimulation by solute” value was 3.6 ± 0.05 and 3.7 ± 0.05; the “Trans-stimulation data: PfCRT-mediated” value is 97 ± 2.2 and 99 ± 2.6; the “Trans-stimulation data: total [3H]CQ transport with the solute injected” value was 99 ± 0.3 and 101 ± 3.7. Besides, in test [5], the “Total … trans-stimulation by solute” value was 2.5 ± 0.04 and 3.0 ± 0.04; the “Trans-stimulation data: total [3H]CQ transport with the solute injected” value was 99 ± 3.5 and 98 ± 5.7.
In the case of `O=C(O)CCC(=O)O` [Succinate], in test [1], the “Cis-inhibition data: total [3H]CQ transport, normalised to the oocyte type control” value was 100 ± 9.7 and 100 ± 3.8 and 99 ± 3.7; the “Total … cis-inhibition by solute” value was 4.2 ± 0.03 and 3.6 ± 0.06 and 3.9 ± 0.1. Further, in test [2], the “Cis-inhibition data: total [3H]CQ transport, normalised to the oocyte type control” value was 101 ± 4.7 and 101 ± 5.3 and 100 ± 5.3; the “Total … cis-inhibition by solute” value is 2.4 ± 0.06 and 2.8 ± 0.03 and 2.2 ± 0.06. Besides, in test [3], the “Total … by injected solute” value is 2.6 ± 0.04 and 3.3 ± 0.08; the “Trans-stimulation data: total [3H]CQ transport, normalised to the oocyte type control” value is 101 ± 3.7 and 98 ± 3.0. In test [4], the “PfCRT-mediated [3H]CQ transport … PfCRT3D7” value was 0.8 ± 0.04 and 0.6 ± 0.02; the “Total … by injected solute” value was 3.8 ± 0.1 and 3.6 ± 0.03; the “Trans-stimulation data: PfCRT-mediated” value is 99 ± 3.9 and 96 ± 4.0; the “Trans-stimulation data: total [3H]CQ transport, normalised to the oocyte type control” value is 101 ± 2.7 and 98 ± 3.7. Further, in test [5], the “Total … by injected solute” value was 3.1 ± 0.03 and 2.2 ± 0.05; the “Trans-stimulation data: total [3H]CQ transport, normalised to the oocyte type control” value is 100 ± 3.7 and 99 ± 3.3.
On to `N[C@@H](CCC(=O)N[C@@H](CS)C(=O)NCC(=O)O)C(=O)O` [Reduced glutathione (GSH)], for which, in test [1], the “Cis-inhibition data: total [3H]CQ transport, normalised to the oocyte type control” value is 100 ± 5.5 and 101 ± 3.7 and 100 ± 4.7; the “Total … cis-inhibition by solute” value was 2.7 ± 0.06 and 3.1 ± 0.08 and 3.3 ± 0.07. Also, in test [2], the “Cis-inhibition data: total [3H]CQ transport, normalised to the oocyte type control” value was 99 ± 4.6 and 99 ± 4.5 and 101 ± 2.2; the “Total … cis-inhibition by solute” value was 2.8 ± 0.2 and 2.6 ± 0.08 and 3.2 ± 0.08. In test [3], the “Total … by injected solute” value is 3.8 ± 0.07 and 2.7 ± 0.06; the “Trans-stimulation data: total [3H]CQ transport, normalised to the oocyte type control” value is 98 ± 3.8 and 99 ± 4.4. Besides, in test [4], the “PfCRT-mediated [3H]CQ transport … PfCRT3D7” value is 0.2 ± 0.03 and 0.2 ± 0.01; the “Total … by injected solute” value came out at 3.2 ± 0.03; the “Trans-stimulation data: PfCRT-mediated” value is 96 ± 3.7 and 98 ± 3.9; the “Trans-stimulation data: total [3H]CQ transport, normalised to the oocyte type control” value was 98 ± 4.3 and 100 ± 3.8. In addition, in test [5], the “Total … by injected solute” value was 2.7 ± 0.05 and 2.9 ± 0.05; the “Trans-stimulation data: total [3H]CQ transport, normalised to the oocyte type control” value was 99 ± 4.9 and 101 ± 4.7.
